Experimental data as given in patent US20100183585A1, “METHODS AND COMPOSITIONS FOR TREATING TUMORS AND METASTASES THROUGH THE MODULATION OF LATEXIN” (University of Kentucky Research Foundation, priority 2008, published 2010).

System: latexin
Test: latexin mRNA by quantitative real-time PCR in leukemic cell lines after 5-aza-2′-deoxycytidine treatment
Type: cell-based, human
Conditions: for latexin gene expression: 2 μM for 4 days
Procedure: To measure the expression of latexin in leukemic cells, quantitative real-time PCR was performed. Identical numbers (200,000) of cells were used for total RNA extraction using RNeasy Mini kit (QIAGEN, Valencia, Calif.) according to the manufacture's instructions. Isolated total RNA was reverse transcribed into cDNA using random hexamers in TaqMan® reverse transcription solution (PN N8080234), and stored at −20° C. In real-time PCR reactions, primer and probe mix for human latexin were purchased from Applied Biosystems (Foster city, CA, USA). TaqMan® human glyceraldehyde-3-phosphate dehydrogenase (GAPDH) was served as an endogenous control to normalize latexin expression. PCR reactions were set up as per manufacturer's instructions using TaqMan® universal PCR master mix (PN 4304437). Analyses of gene expression were performed in single reporter assays in an ABI PRISM 7700 sequence detection system (PE Biosystems, Foster city, CA, USA).
To examine the correlation of promoter hypermethylation and latexin gene expression, leukemia cell lines shown to have a lack of or decrease in latexin expression were subjected to 5-aza-2′-deoxycytidine treatment. Cells were plated with 2 ? M 5-aza-2′-deoxycytidine (Sigma-Aldrich; St. Louis, Mo.), and incubated for 4 days. The medium and the drug were replaced every 24 hours, and cells were harvested for RNA and DNA extraction 4 days after treatment.

## Nc1ncn([C@H]2C[C@H](O)[C@@H](CO)O2)c(=O)n1 [5-aza-2′-deoxycytidine]
HL-60, KG-1, SupB15 lines
  latexin gene expression: significantly up-regulated
K562, Molt4, CCRF-CEM, J45.01, Jurkat, U937 (completely lacked latexin expression prior to treatment)
  latexin gene expression: reactivated
Human leukemia and lymphoma cell lines treated with the demethylating reagent
  latexin expression: re-initiated or up-regulated
